Source: patent US20230101768A1, “METHOD TO TREAT MANGANESE TOXICITY AND MANGANESE-INDUCED PA[…] HUMANS” (priority 2021, published 2023)
Like-named read-outs stand apart in the source and are kept apart here. Starred links: 1 amine or outer side, 2 acyl side, 3 side chain; linkers in the order of their positions; H or OH if unused. Positions of bridges follow the written chain, without caps; N, C: chain ends. Non-standard residues stand in square brackets, D forms with d. Residues, ends and D or L forms follow the SMILES beside them. Chains are numbered I, II in the order given. *: point of attachment. Actinocin(9to1) = Cc1c2oc3c(C)ccc(C(=O)[*:1])c3nc-2c(C(=O)[*:2])c(N)c1=O; NMeV = CN[C@H](C(=O)O)C(C)C; Cbz = O=C(OCc1ccccc1)*; Sar = CNCC(=O)O

Assays:
SLC30A10 [1] = type: cell-based, human; details: for SLC30A10 expression after prolyl hydroxylase inhibitor: indicated doses for 16 h or indicated times, no drug normalized to 1
Procedure: (§1) Cells were treated with 0 or 250 μM manganese for 4 h, and gene expression was analyzed by qRT-PCR. For each transcript, expression without manganese treatment was normalized to 1. N=4. Data are mean±SE.
(§2) Cell culture. HepG2 cells were grown in Eagle's modified essential medium (MEM; Corning) with 10% fetal bovine serum (Atlanta Biologicals), 100 IU/ml penicillin (Corning), and 100 μg/ml streptomycin (Corning). 293T cells were maintained in Dulbecco's modified essential medium/F12 (Thermo) supplemented with 10% fetal bovine serum, penicillin (100 IU/ml), and streptomycin (100 μg/ml). Human primary hepatocytes were purchased from XenoTech (catalog #HPCH10+) and cultured according to protocols provided by the supplier.
(§3) manganese and drug treatments in cell culture. Cells were treated with indicated levels of manganese as manganeseCl2.4H2O (Fisher). Vehicle for manganese treatment was water. Prolyl hydroxylase inhibitors roxadustat (Caymen), vadadustat, and molidustat (both APE-Bio); the HIFα inhibitor LW6 (Selleckchem); the proteasomal inhibitor MG132 (Sigma); and the transcription inhibitor actinomycin D (Sigma) were dissolved in DMSO. […] Vehicle treatment for all drugs was DMSO.
(§4) Quantitative RT-PCR assays. RNA extraction from HepG2 cells and mouse tissue, reverse transcription to cDNA, and qRT-PCR analyses were performed as described by us previously (47, 50). For analyses of mouse brain samples, a part of the midbrain, including the basal ganglia, was used. Transcript levels were quantified using the ΔΔCT method with 18S (in mice) or TBP (in HepG2 cells) as the internal control, also as described by us previously (47, 50).

HIF1α = type: cell-based, human; details: HepG2 cells, 20 μM roxadustat, 80 μM vadadustat or 20 μM molidustat for 16 h
Procedure: as §3
(§5) Immunoblots. HepG2 cells were cultured in 35 mm dishes, treated with or without manganese, MG132 and/or prolyl hydroxylase inhibitors, and scrapped using 200 μl of RIPA buffer (50 mM Tris-HCl, pH7.4; 150 mM NaCl; 1Mm EDTA; 1% Triton; 0.25% sodium deoxycholate; protease inhibitors cocktail (Thermo A32953)). Whole-cell lysates were prepared by adding loading buffer (50 mM Tris-HCl, pH 7.4; 2% sodium dodecyl sulfate; 10% glycerol, 0.1 M dithiothreitol; 0.01% (weight/volume) bromophenol blue) and boiling the samples for 5 min. Equal volumes of samples were loaded per lane. Further processing was as described by us previously (47). Images were quantified using ImageQuant TL software (GE).
(§6) Antibodies and chemicals. The inventors used the following commercial primary antibodies in this study: rabbit polyclonal anti-HIF1α (Abcam, Ab2185), rabbit polyclonal anti-HIF2α (Novus, NB100-122), rabbit monoclonal anti-HIF1α proline 564 (Cell signaling, 3434S), and mouse monoclonal anti-tubulin (Sigma, T5168). […] Sources of chemicals not provided elsewhere were Thermo Fisher Scientific or Sigma-Aldrich.

HIF2α = type: cell-based, human; details: HepG2 cells, 20 μM roxadustat, 80 μM vadadustat or 20 μM molidustat for 16 h
Procedure: as §3, §5, §6

HepG2 cells [2] = type: cell-based, human
Procedure: as §2, §3
(§7) Inductively coupled plasma mass spectrometry. Metal measurements using ICP-MS were performed exactly as described by us previously (47, 50, 51, 99).

HepG2 cells [3] = assay: MTT cell viability assay, manganese-induced cell death; type: cell-based, human; details: 20 μM roxadustat, 80 μM vadadustat or 20 μM molidustat for 16 h then manganese for 24 h
Procedure: manganese and drug treatments in cell culture. […] Vehicle for manganese treatment was water. […] Vehicle treatment for all drugs was DMSO.
Cell viability assays. These were performed using the 3-(4,5-dimethylthiazol-2-yl)-2,5-diphenyl tetrazolium bromide (MTT) reagent (Sigma) as described by us previously (47, 50).

SLC30A10 [4] = type: cell-based; details: primary human hepatocytes; for SLC30A10 expression after prolyl hydroxylase inhibitor: 20 μM roxadustat or 80 μM vadadustat for 16 h
Procedure: (§8) (A) and (B): qRT-PCR assays in cells treated with or without 10 μM LW6 for 1 h followed by 0 or 250 μM manganese for 4 h (A) or with or without 20 μM roxadustat or 80 μM vadadustat for 16 h (B). […] For (B), expression in the absence of drug treatment was normalized to 1. N=3. Mean±SE. *P<0.05 by t-test (A) or one-way ANOVA and Dunnett's post hoc test for the comparison between no drug and other conditions (B).
as §2, §3, §4

VEGF [5] = type: cell-based; details: primary human hepatocytes; for VEGF expression after prolyl hydroxylase inhibitor: 20 μM roxadustat or 80 μM vadadustat for 16 h
Procedure: as §8, §2, §3, §4

[6] = system: prolyl hydroxylated HIF1α; type: cell-based, human
Procedure: as §3, §5, §6

VEGF [7] = type: cell-based, human; details: HepG2 cells, 10 μM LW6 for 1 h then 250 μM manganese for 4 h
Procedure: as §1, §2, §3, §4

SLC30A10 promoter = type: cell-based, human
Source text: A luciferase reporter plasmid containing the proximal promoter of human SLC30A10 has been previously described and was a gift of Dr. Ruth Valentine (100). The promoter fragment corresponding to bases −679 to +211 relative to the start of transcription was sub-cloned into the Xho1 and SpeI sites of pRRLSIN.cPPTLuciferase.WPRE vector (Addgene, #69251), which is a luciferase vector for lentivirus infections. Deletion mutants were generated using the loop-out modification of the QuikChange protocol.
Lentiviral infections. Stable cells were generated by lentivirus infection essentially as described by us previously (49, 98). Briefly, lentivirus was produced in HEK293T cells by co-transfecting transfer plasmids described above with plasmids coding for a third generation packing system that is routinely used (pRSV-Rev, pRRE, and pCMV-VSVG) (49, 98). Viral supernatants were collected 40-48 h post-transfection. HepG2 cells for infection were plated in a 60 mm dish 24 h before infection so that cells reached a confluence of 30% on the day of infection. Collected viral supernatants were filtered through a 0.45-μm polyvinylidene difluoride filter, and cells were incubated with a 1:2 dilution of viral supernatant containing 5 μg/mL Polybrene (Santa Cruz). […]

SLC30A10 [8] = type: in vivo, mice; details: C57BL/6J mice, roxadustat 10 mg/kg daily i.p. for 4 weeks
Procedure: A well-characterized drinking water-based manganese exposure regimen was used to model human environmental manganese exposure by providing mice with ˜50 mg manganeseCl2.4H2O/kg body weight daily (˜15 mg absolute manganese/kg per day) from birth until 8 weeks of age. This, and related similar, dosing regimens: 1) approximate the increase in manganese exposure in humans consuming well water contaminated with 1.5 mg manganese/L, which is the median well water concentration associated with neurological deficits in children; 2) increase brain manganese levels by ˜2-3 fold, similar to human patients; 3) produce measurable neurobehavioral deficits without overt toxicity; and 4) model exposure to manganese in developmentally-sensitive early-life and adolescent periods (11). Pre-weaning manganese was delivered by pipette directly into the mouth, and post-weaning manganese was delivered in drinking water using procedures described in detail in ref. (11). In brief, pre-weaning dosing was adjusted to each animal's body weight. For this, a stock solution of 69.2 mg absolute manganese/ml prepared in milliQ water was diluted in milliQ water containing 2.5% (wt/vol) of the natural sweetener Stevia (to facilitate intake by pups), and the required manganese amount (0.2 μl manganese stock/g body weight) was delivered in a dose of ˜5-10 μl/animal. For post-weaning exposure, a 27.7 mg absolute manganese/ml stock solution was prepared in water and diluted to 0.069 mg absolute manganese/ml in drinking water, which provided mice with ˜15 mg absolute manganese/kg per day based on a daily water intake of ˜2-5 ml/mouse depending on age.
(§9) To assay for the protective effect of roxadustat, animals were exposed to roxadustat or vehicle with or without manganese in drinking water from ˜4 weeks of age. Treatment lasted for 4 weeks from initiation. Roxadustat (Selleckchem) was prepared as a 50 mg/ml stock solution in DMSO, then diluted to 1 mg/ml in sterile phosphate buffered saline (PBS), and delivered by daily i.p. injection at 10 mg/kg. Vehicle was 2% DMSO in PBS. For this experiment, drinking water manganese levels were adjusted to 0.138 mg absolute manganese/ml so that animals received ˜30 mg absolute manganese/kg daily. A higher level of manganese was used because exposure was initiated after weaning, which was necessary because daily i.p. injections for roxadustat delivery were not possible in the pre-weaning period.
(§10) Animals were euthanized using carbon dioxide and tissue dissected for qRT-PCR or ICPMS analyses as described by us previously (50).
as §4

C57BL/6J mice [9] = system: C57BL/6J mice
Procedure: as §9
Open-field assays for neurobehavior assessment. Open-field analyses were performed as described in a recent publication (51).

C57BL/6J mice [10] = details: roxadustat 10 mg/kg daily i.p. with or without manganese in drinking water, 4 weeks, two-way ANOVA
Procedure: as §9, §10, §7

[11] = 10 μM LW6 for 1 h then 250 μM manganese for 4 h

SMILES | SLC30A10 expression after prolyl hydroxylase inhibitor (SLC30A10 [1]; HepG2 cells) | HIF1α protein levels after prolyl hydroxylase inhibitor (HIF1α) | HIF2α protein levels after prolyl hydroxylase inhibitor (HIF2α) | Intracellular Fe, Cu, and Zn levels (HepG2 cells [2]) | Intracellular manganese in cells not exposed to manganese (HepG2 cells [2]) | Intracellular manganese levels under elevated manganese exposure, versus controls (HepG2 cells [2]) | Protection against manganese-induced cell death (HepG2 cells [3]) | SLC30A10 expression after prolyl hydroxylase inhibitor (SLC30A10 [4]) | VEGF expression after prolyl hydroxylase inhibitor (VEGF [5]) | also measured
O=C(O)CNC(=O)c1ncc(-c2cccc(Cl)c2)cc1O [vadadustat, 2-[[5-(3-chlorophenyl)-3-hydroxypyridine-2-carbonyl]amino]acetic acid] | enhanced | increased | increased | no effect | did not impact | significantly lower | protected | increased | increased | 
CC(C)C[C@@H](C=O)NC(=O)[C@H](CC(C)C)NC(=O)[C@H](CC(C)C)NC(=O)OCc1ccccc1 [MG132, reference compound] (Cbz-Leu-Leu-Leu-aldehyde) |  |  |  |  |  |  |  |  |  | Prolyl hydroxylated HIF1α after proteasome inhibition [6]: accumulation
Cc1c2oc3c(C)ccc(C(=O)N[C@@H]4C(=O)N[C@H](C(C)C)C(=O)N5CCC[C@H]5C(=O)N(C)CC(=O)N(C)[C@@H](C(C)C)C(=O)O[C@@H]4C)c3nc-2c(C(=O)N[C@@H]2C(=O)N[C@H](C(C)C)C(=O)N3CCC[C@H]3C(=O)N(C)CC(=O)N(C)[C@@H](C(C)C)C(=O)O[C@@H]2C)c(N)c1=O [actinomycin D, reference compound] (I: T[dV]P[Sar][NMeV] / II: T[dV]P[Sar][NMeV]; ester I:1-I:C, II:1-II:C; linker I:N-II:N via Actinocin(9to1)) |  |  |  |  |  |  |  |  |  | Effect of actinomycin D on increase in SLC30A10 mRNA after manganese exposure (SLC30A10 [1]): blocked
COC(=O)c1ccc(O)c(NC(=O)COc2ccc(C34CC5CC(CC(C5)C3)C4)cc2)c1 [LW6, reference compound] |  |  |  |  |  |  |  |  |  | Effect of LW6 on manganese-induced upregulation of SLC30A10 (SLC30A10 [1]; HepG2 cells, 10 μM LW6 for 1 h then 250 μM manganese for 4 h): robustly blocked; Effect of LW6 on manganese-induced upregulation of VEGF (VEGF [7]): robustly blocked; Effect of LW6 on manganese-induced increase in activity of SLC30A10 promoter luciferase reporter (SLC30A10 promoter): abolished; Effect of LW6 on manganese-induced increase of SLC30A10 expression (SLC30A10 [4]; [11]): inhibited; Effect of LW6 on manganese-induced increase of VEGF expression (VEGF [5]; [11]): inhibited
Cc1nc(C(=O)NCC(=O)O)c(O)c2ccc(Oc3ccccc3)cc12 [roxadustat, 2-[(4-hydroxy-1-methyl-7-phenoxyisoquinoline-3-carbonyl)amino]acetic acid] | enhanced | increased | increased | no effect | did not impact | significantly lower | protected | increased | increased | Brain SLC30A10 levels (SLC30A10 [8]): did not impact; Intestinal SLC30A10 levels (SLC30A10 [8]): increased; Open-field activity, roxadustat treatment by itself (C57BL/6J mice [9]; C57BL/6J mice, roxadustat 10 mg/kg daily i.p. for 4 weeks, no manganese): did not impact; Hypo-locomotor phenotype (reduced vertical movement) in mice treated with manganese and roxadustat (C57BL/6J mice [9]; mouse, in vivo): not detected; Brain manganese levels, main effect of roxadustat (C57BL/6J mice [10]): reducing
